Laboratory results from patent publication US20100093811A1 (priority 2007, published 2010).
Where a name gives a salt, the structure may show the parent alone. Read-outs that look alike come from different tables or passages of the source.

Columns and labels:
[1] = system: acute HIV infection of T-lymphoid cells; assay: Assay for inhibition of HIV replication (spread assay); type: cell-based, HIV-1; conditions: read-out: Spread - IC95
Description: • Assay for Inhibition of HIV Replication
Assays for the inhibition of acute HIV infection of T-lymphoid cells were conducted in accordance with Vacca, J. P. et al., Proc. Natl. Acad. Sci. USA 1994, 91: 4096.

wild-type HIV-1 protease = wild-type HIV-1 protease (Human immunodeficiency virus type 1 group M subtype B, UniProt P04585); assay: Assay for inhibition of microbial expressed HIV protease; type: biochemical
Description: Assay for Inhibition of Microbial Expressed HIV Protease
Inhibition studies of the reaction of the protease (which was expressed in Eschericia coli) with a peptide substrate [Val-Ser-Gln-Asn-(betanapthyl)Ala-Pro-Ile-Val]. The inhibitor is first preincubated with the enzyme in assay buffer (50 mM sodium acetate, pH 5.5, 100 mM NaCl, and 0.1% BSA) for 30 minutes at room temperature. Substrate is added to 440 micromolar in a total volume of 80 microliters containing 5 picomolar HIV-1 protease, and the reaction is incubated for 1 hour at 30° C. The reaction is quenched by addition of 120 microliters of 10% phosphoric acid, and product formation is determined after separation of product and substrate on a Vydac C18 column connected to an Alliance high performance liquid chromatography system (Waters Corporation). The extent of inhibition of the reaction is determined from the peak area of the products.

[2] = Human immunodeficiency virus 1, T-lymphoid
[3] = wild-type HIV-1 protease expressed in E. coli, peptide substrate, pH 5.5, read-out: Enzyme Inhibition - IC50

Row | Structure (SMILES) | IC95 [1, 2] [nM] | IC50 (wild-type HIV-1 protease; [3]) [nM] | IC95 ([1]; inhibition of HIV-1 replication, 10% FBS) [nM] | IC50 (wild-type HIV-1 protease) [nM]
1 | CC[C@@H](CCC[C@@H](CO)N(CC(C)C)S(=O)(=O)c1ccc(CO)cc1)NC(=O)[C@H](Cc1ccccc1Cl)NC(=O)OC [Example J21, 2-chloro-N-{(1S,55)-1-ethyl-6-hydroxy-5-[{[4-(hydroxymethyl)phenyl]sulfonyl}(isobutyl)amino]hexyl}-Nα-(methoxycarbonyl)-L-phenylalaninamide] | 49 | 0.419 |  | 
2 | COC(=O)N[C@H](C(=O)N[C@H](CCC[C@@H](CO)N(CCC(C)C)S(=O)(=O)c1ccc(C(C)=O)cc1)C1CC1)C(c1ccc(F)cc1)c1ccc(F)cc1 [Example E5, N-{(1R,5S)-5-[[(4-acetylphenyl)sulfonyl](3-methylbutyl)amino]-1-cyclopropyl-6-hydroxyhexyl}-4-fluoro-β-(4-fluorophenyl)-Nα-(methoxycarbonyl)-L-phenylalaninamide] | 47 | 0.053 |  | 
3 | COC(=O)N[C@H](C(=O)N[C@H](CCC[C@@H](CO)N(CCC(C)C)S(=O)(=O)c1ccc(N)c(F)c1)C1CC1)C(c1ccccc1)c1ccccc1 [Example E3, N-{(1R,5S)-5-[[(4-amino-3-fluorophenyl)sulfonyl](3-methylbutyl)amino]-1-cyclopropyl-6-hydroxyhexyl}-Nα-(methoxycarbonyl)-β-phenyl-L-phenylalaninamide] | 11 | 0.057 |  | 
4 | COC(=O)N[C@H](C(=O)N[C@H](CCC[C@@H](CO)N(CCC(C)C)S(=O)(=O)c1ccc(Cl)cc1)C1CC1)C(c1ccccc1)c1ccccc1 [Example E4, N-{(1R,5S)-5-[[(4-chlorophenyl)sulfonyl](3-methylbutyl)amino]-1-cyclopropyl-6-hydroxyhexyl}-Nα-(methoxycarbonyl)-β-phenyl-L-phenylalaninamide] | 22 | 0.201 |  | 
5 | COC(=O)N[C@H](C(=O)N[C@H](CCC[C@@H](CO)N(C(C)C)S(=O)(=O)c1ccc(N)cc1)C(F)(F)F)C(c1ccccc1)c1ccccc1 [Example H3, N-[(1R,55)-5-[[(4-aminophenyl)sulfonyl](isopropyl)amino]-6-hydroxy-1-(trifluoromethyl)hexyl]-Nα-(methoxycarbonyl)-β-phenyl-L-phenylalaninamide] |  | 0.076 | 18 | 
6 | CC[C@@H](CCC[C@@H](CO)N(CCC(C)C)S(=O)(=O)c1ccc(N)cc1)NC(=O)[C@@H](NC(=O)OC)C1c2ccccc2Oc2ccccc21 [Example F11, methyl [2-({(1S,5S)-5-[[(4-aminophenyl)sulfonyl](3-methylbutyl)amino]-1-ethyl-6-hydroxyhexyl}amino)-2-oxo-1-(9H-xanthen-9-yl)ethyl]carbamate] | 38 | 0.021 |  | 
7 | COC(=O)N[C@H](C(=O)NC(CO)CCCC(CO)N(CCC(C)C)S(=O)(=O)c1ccc(N)cc1)C(c1ccccc1)c1ccccc1 (single isomer, unassigned) [Example M1-7A, N-[(1R or 1S,5R or 5S)-5-[[(4-aminophenyl)sulfonyl](3-methylbutyl)amino]-6-hydroxy-1-(hydroxymethyl)hexyl]-Nα-(methoxycarbonyl)-β-phenyl-L-phenylalaninamide] | 302 | 0.349 |  | 
8 | COC(=O)N[C@H](C(=O)N[C@H](CCC[C@@H](CO)N(CCC(C)C)S(=O)(=O)c1ccc2ncsc2c1)C1CC1)C(c1ccccc1)c1ccccc1 [Example G3, N-{(1R,5S)-5-[(1,3-benzothiazol-6-ylsulfonyl)(3-metbylbutyl)amino]-1-cyclopropyl-6-hydroxyhexyl}-Nα-(methoxycarbonyl)-β-phenyl-L-phenylalaninamide] | 44 | 0.158 |  | 
9 | CC[C@@H](CCC[C@@H](CO)N(CCC(C)C)S(=O)(=O)c1ccc(N)cc1)NC(=O)[C@@H](N)C(c1ccccc1)c1ccccc1 [Example F13, N-{(1S,5S)-5-[[(4-aminophenyl)sulfonyl](3-methylbutyl)amino]-1-ethyl-6-hydroxyhexyl}-β-phenyl-L-phenylalaninamide] | 15 | 0.01 |  | 
10 | CC[C@@H](CCC[C@@H](CO)N(CCC(C)C)S(=O)(=O)c1ccc(N)cc1)NC(=O)[C@@H](NC(=O)OC)C1c2ccccc2C=Cc2ccccc21 [Example F6, methyl [2-({(1S,5S)-5-[[(4-aminophenyl)sulfonyl](3-methylbutyl)amino]-1-ethyl-6-hydroxyhexyl}amino)-1-(5H-dibenzo[a,d][7]annulen-5-yl)-2-oxoethyl]carbamate] | 10 | 0.01 |  | 
11 | CCCN([C@H](CO)CCC[C@H](CC)NC(=O)[C@H](Cc1ccccc1Br)NC(=O)OC)S(=O)(=O)c1ccc(N)cc1 [Example F7, N-{(1S,5S)-5-[[(4-aminophenyl)sulfonyl](propyl)amino]-1-ethyl-6-hydroxyhexyl}-2-bromo-Nα-(methoxycarbonyl)-L-phenylalaninamide] | 251 | 0.862 |  | 
12 | COC(=O)N[C@H](C(=O)N[C@H](CCC[C@@H](CO)N(CC(C)C)S(=O)(=O)c1ccc(N)cc1)C(F)(F)F)C(c1ccccc1)c1ccccc1 [Example H5, N-[(1R,5S)-5-[[(4-aminophenyl)sulfonyl](isobutyl)amino]-6-hydroxy-1-(trifluoromethyl)hexyl]-Nα-(methoxycarbonyl)-β-phenyl-L-phenylalaninamide] | 7 |  |  | 0.02
13 | CC(C)CCN([C@H](CO)CCC[C@@H](NC(=O)[C@@H](N)C(c1ccc(F)cc1)c1ccc(F)cc1)C1CC1)S(=O)(=O)c1ccc([C@H](C)O)cc1 [Example J18, N-{(1R,5S)-1-cyclopropyl-6-hydroxy-5-[({4-[(1S)-1-hydroxyethyl]phenyl}sulfonyl)(3-methylbutyl)amino]hexyl}-4-fluoro-β-(4-fluorophenyl)-L-phenylalaninamide hydrochloride] | 8 |  |  | 0.01
14 | COC(=O)N[C@H](C(=O)N[C@@H](C)CCC[C@@H](CO)N(CC(C)C)S(=O)(=O)c1ccc(N)cc1)C(c1ccccc1)c1ccccc1 [Example D9, N-{(1S,5S)-5-[[(4-aminophenyl)sulfonyl](isobutyl)amino]-6-hydroxy-1-methylhexyl}-Nα-(methoxycarbonyl)-β-phenyl-L-phenylalaninamide] | 8 | 0.035 |  | 
15 | COC(=O)N[C@H](C(=O)N[C@@H](C)CCC[C@@H](CO)N(C)S(=O)(=O)c1ccc(CO)cc1)C(c1ccccc1)c1ccccc1 [Example G6, N-{(1S,5S)-6-hydroxy-5-[{[4-(hydroxymethyl)phenyl]sulfonyl}(methyl)amino]-1-methylhexyl}-Nα-(methoxycarbonyl)-β-phenyl-L-phenylalaninamide] | 161 | 0.376 |  | 
16 | CCC[C@@H](CCC[C@@H](CO)N(CCCF)S(=O)(=O)c1ccc(N)cc1)NC(=O)[C@@H](NC(=O)OC)C(c1ccccc1)c1ccccc1 [Example D13, N-{(1S,5S)-5-[[(4-aminophenyl)sulfonyl](3-fluoropropyl)amino]-6-hydroxy-1-propylhexyl}-Nα-(methoxycarbonyl)-β-phenyl-L-phenylalaninamide] | 213 | 0.867 |  | 
17 | CCC(CCC[C@@H](CO)N(CCC(C)C)S(=O)(=O)c1ccc(N)cc1)NC(=O)[C@H](C(c1ccccc1)c1ccccc1)N(C)C(=O)OC (mixture of isomers) [Example F12, N{(5S)-5-[[(4-aminophenyl)sulfonyl](3-methylbutyl)amino]-1-ethyl-6-hydroxyhexyl}-Nα-(methoxycarbonyl)-Nα-methyl-β-phenyl-L-phenylalaninamide] | 325 | 2.11 |  | 
18 | COC(=O)N[C@@H](Cc1ccccc1Cl)C(=O)N[C@H](CCC[C@@H](CO)N(CCC(C)C)S(=O)(=O)c1ccc(CO)cc1)C(C)C [Example J26, 2-chloro-N-{(1R,5S)-6-hydroxy-5-[{[4-(hydroxymethyl)phenyl]sulfonyl}(3-methylbutyl)amino]-1-isopropylhexyl}-Nα-(methoxycarbonyl)-L-phenylalaninamide] | 110 | 1.33 |  | 
19 | COC(=O)N[C@H](C(=O)N[C@H](CCC[C@@H](CO)N(C(C)C)S(=O)(=O)c1ccc(N)cc1)C1CC1)C(c1ccccc1)c1ccccc1 [Example I8, N-{(1R,5S)-5-[[(4-aminophenyl)sulfonyl](isopropyl)amino]-1-cyclopropyl-6-hydroxyhexyl}-Nα-(methoxycarbonyl)-β-phenyl-L-phenylalaninamide] | 43 | 0.346 |  | 
20 | CCCN([C@H](CO)CCC[C@H](CC)NC(=O)[C@H](Cc1cccc2ccccc12)NC(=O)OC)S(=O)(=O)c1ccc(CO)cc1 [Example J41, methyl [(1S)-2-({(1S,5S)-1-ethyl-6-hydroxy-5-[{[4-(hydroxymethyl)phenyl]sulfonyl}(propyl)amino]hexyl}amino)-1-(1-naphthylmethyl)-2-oxoethyl]carbamate] | 54 | 0.564 |  | 
21 | COC(=O)N[C@H](C(=O)N[C@@H](C)CCC[C@@H](CO)N(CCC(C)C)S(=O)(=O)c1ccc(CO)cc1)C(c1ccccc1)c1ccccc1 [Example J4, N-{(1S,5S)-6-hydroxy-5-[{[4-(hydroxymethyl)phenyl]sulfonyl}(3-methylbutyl)amino]-1-methylhexyl}-Nα-(methoxycarbonyl)-β-phenyl-L-phenylalaninamide] | 6 | 0.007 |  | 
